Measurements as given in patent EP0025288A1, “Derivatives of monic acid, processes for their preparation, compositions containing them and their preparation” (priority 1979, dated 1981).
≈ marks a conversion by molar mass, not a printed value.

Legend:
Type in all cases: cell-based
[1] = tested on: M. suipneumoniae ATCC 25095; assay: MIC, anti-mycoplasmal, Friis broth solidified with 0.9% agarose; conditions: Mesomycoplasma hyopneumoniae, ATCC25095, 144 h, inoculum 10^3 to 10^5 C.F.U., 6 days incubation at 37°C, read-out: in vitro MIC
M. suipneumoniae HK(2) = assay: as above; conditions: Mesomycoplasma hyopneumoniae, 144 h, inoculum 10^3 to 10^5 C.F.U., 6 days incubation at 37°C, read-out: in vitro MIC
M. suipneumoniae Str. 11 = assay: as above; conditions: Mesomycoplasma hyopneumoniae, 144 h, inoculum 10^3 to 10^5 C.F.U., 6 days incubation at 37°C, read-out: in vitro MIC
Strep uberis SPU1 = assay: MIC, veterinary bacteria; conditions: veterinary bacteria (Table 2), read-out: MIC
[2] = tested on: M. bovigenitalium ATCC 14173; assay: MIC, anti-mycoplasmal, Friis broth solidified with 0.9% agarose; conditions: 144 h, inoculum 10^3 to 10^5 C.F.U., 6 days incubation at 37°C, read-out: in vitro MIC
M. hyorhinis ATCC 23234 = assay: as above; conditions: Mesomycoplasma hyorhinis, ATCC23234, 144 h, inoculum 10^3 to 10^5 C.F.U., 6 days incubation at 37°C, read-out: in vitro MIC
[3] = tested on: Erysipelothrix rhusiopathiae NCTC 8163; assay: MIC, veterinary bacteria; conditions: NCTC8163, veterinary bacteria (Table 2), read-out: MIC
S typhimurium S18 = assay: MIC, veterinary bacteria; conditions: veterinary bacteria (Table 2), read-out: MIC
Bord bronchisptica BO9 = assay: MIC, veterinary bacteria; conditions: veterinary bacteria (Table 2), read-out: MIC

With `CC(=CC(=O)OCCCC(=O)c1ccccc1)CC1OCC(CC2OC2C(C)C(C)O)C(O)C1O` (stereo not drawn) [Example 5, 4-Phenylbutan-4-onyl monate A] the MIC [1] was 0.25 µg/mL (≈ 0.51 µM), the MIC (M. suipneumoniae HK(2)) was 0.5 µg/mL (≈ 1.02 µM) and the MIC (M. suipneumoniae Str. 11) was 0.25 µg/mL (≈ 0.51 µM). The MIC (Strep uberis SPU1) was 0.07 µg/mL (≈ 0.143 µM), the MIC [2] was 0.025 µg/mL (≈ 0.051 µM) and the MIC (M. hyorhinis ATCC 23234) was 0.25 µg/mL (≈ 0.51 µM). It also gave an MIC [3] of 40 µg/mL (≈ 81.5 µM), an MIC (S typhimurium S18) of 80 µg/mL (≈ 163 µM) and an MIC (Bord bronchisptica BO9) of 5 µg/mL (≈ 10.2 µM).
